# In US20030143635A1, “Assay for detection of transferase enzyme activity in drug screening” (AstraZeneca AB, priority 2000, published 2003):
# What was measured:
# transferase enzyme = molecular target: T1, transferase enzyme (Escherichia coli, UniProt P17443); assay: Scintillation proximity assay of the transferase alone, with membranes of E. coli AMA1004 ΔponB::SpcR and pre-formed Lipid I (Example 4); format: biochemical; conditions: Tunicamycin 10 μg/ml present, 37° C., 5 min, after subtracting 0% reaction readings
# T1 sequence (P17443 1-355): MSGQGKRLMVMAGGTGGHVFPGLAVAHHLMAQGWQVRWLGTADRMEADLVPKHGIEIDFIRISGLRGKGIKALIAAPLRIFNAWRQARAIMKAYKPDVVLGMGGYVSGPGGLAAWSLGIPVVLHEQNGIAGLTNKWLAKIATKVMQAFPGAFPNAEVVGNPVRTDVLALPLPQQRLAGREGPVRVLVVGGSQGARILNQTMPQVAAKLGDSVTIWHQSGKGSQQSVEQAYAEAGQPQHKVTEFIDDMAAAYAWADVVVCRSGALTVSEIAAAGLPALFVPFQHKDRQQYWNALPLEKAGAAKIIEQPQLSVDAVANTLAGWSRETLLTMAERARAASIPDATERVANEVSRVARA
# Procedure: Microbiol., (1985), 131, 2839-2845. The plate was incubated for 20 min at 37° C.
# (ii) Tunicamycin was then added to a final concentration of 10 μg/ml, followed by a test compound (e.g. Vancomycin or Nisin) of varying concentration in dimethyl sulphoxide. Nisin and Vancomycin are known antagonists of the transferase enzyme.
# (iii) Then to the reaction well, in a 5 μl volume, the substrate for the transferase was added: 2.5 μM tritiated UDP-N-acetyl glucosamine (0.5 μCi per well). The microtitre plate was incubated for 5 min at 37° C.
# (iv) The reaction was terminated by diluting out the radiolabel i.e. by addition of 25 μl of 200 μM unlabelled UDP-GlcNAc.
# [1] = tested on: translocase and transferase enzymes; format: biochemical, Escherichia coli; conditions: 100 μM test compound; E. coli AMA1004 membranes; 37° C., 30 min; after subtracting 0% reaction readings
# Procedure: (§1) (i) The wells of a microtitre plate were individually filled with a total volume of 25 μl of a reaction mixture comprising an aqueous buffer solution of 50 mM HEPES-ammonia (N-[2-Hydroxyethyl]piperazine-N′-[2-ethanesulfonic acid]) (pH 7.5), and 10 mM magnesium chloride 15 μM UDP-MurNAc-L-alanine-γ-D-glutamic acid-m-diaminopimelic acid-D-alanine-D-alanine, 2.5 μM tritiated UDP-N-acetyl glucosamine (0.2 μCi per well), 6 μg of Escherichia coli AMA1004 cell membranes prepared as described below and a solution of test compound (e.g. Tunicamycin, Vancomycin) of varying concentration in 4% dimethylsulphoxide.
# (§2) Four wells of the microtitre plate were used as controls: two wells contained no UDP-N-acetylmuramylpentapeptide (0% reaction controls) and a further two wells contained no test compound (100% reaction controls).
# (§3) The microtitre plate was incubated at 37° C. for 30 min and thereafter 5 μl of ethylenediaminetetraacetic acid (EDTA) was added to give a final EDTA concentration of 15 mM.
# (§4) (ii) After addition of the EDTA, 170 μl of an aqueous suspension of wheatgerm agglutinin-coated scintillation proximity assay beads comprising 500 μg beads in a solution of HEPES-ammonia, pH 7.5, was added to each well such that the final concentration of HEPES-ammonia was 50 mM.
# (§5) The plate was left for 3 hours/overnight at room temperature before being counted in the “Microbeta Trilux” counter.
# [2] = molecular target: T2, translocase and transferase enzymes (Escherichia coli, UniProt P0A6W3); format: biochemical; conditions: 6 μg/ml test compound; E. coli AMA1004 membranes; 37° C., 30 min; after subtracting 0% reaction readings
# T2 sequence (P0A6W3 1-360): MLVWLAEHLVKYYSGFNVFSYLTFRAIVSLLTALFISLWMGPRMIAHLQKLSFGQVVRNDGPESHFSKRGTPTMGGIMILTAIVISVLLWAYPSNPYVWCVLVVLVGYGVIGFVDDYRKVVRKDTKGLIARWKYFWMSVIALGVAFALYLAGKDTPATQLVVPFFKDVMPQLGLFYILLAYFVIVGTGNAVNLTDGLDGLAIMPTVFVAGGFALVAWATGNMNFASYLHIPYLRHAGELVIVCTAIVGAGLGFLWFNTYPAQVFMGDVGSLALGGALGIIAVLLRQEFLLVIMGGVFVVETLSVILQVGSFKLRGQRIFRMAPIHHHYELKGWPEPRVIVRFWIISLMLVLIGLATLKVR
# Procedure: as §1, §2, §3, §4, §5
compound,measurement,setting,value
CN[C@H](CC(C)C)C(=O)N[C@H]1C(=O)N[C@@H](CC(N)=O)C(=O)N[C@H]2C(=O)N[C@H]3C(=O)N[C@H](C(=O)N[C@H](C(=O)O)c4cc(O)cc(O)c4-c4cc3ccc4O)[C@H](O)c3ccc(c(Cl)c3)Oc3cc2cc(c3O[C@@H]2O[C@H](CO)[C@@H](O)[C@H](O)[C@H]2O[C@H]2C[C@](C)(N)[C@H](O)[C@H](C)O2)Oc2ccc(cc2Cl)[C@H]1O [Vancomycin],remaining activity at 100 µM,transferase enzyme; 100 μM test compound,~50%
same,% Inhibition,[1],82%
Nisin,% Enzyme Activity,transferase enzyme; 10 μg/ml test compound,˜30%
Tunicamycin,% Inhibition,[2],104%
